Data on 65 compounds can be found in patent US8551984B2, “Aminopyrimidines as SYK inhibitors” (Merck Sharp & Dohme Corp., priority 2009, dated 2013).

The first assay concerns the target recombinant human SYK (GST-hSYK fusion protein) (Homo sapiens, UniProt P43405). Briefly: biochemical. The following applies: Syk IC50, HTRF, recombinant human GST-SYK.
Excerpt: Homogeneous Time-Resolved Fluorescence (HTRF) Assay for the Recombinant Human SYK Enzyme:
Take `Cc1cc(Nc2nccc(C(F)(F)F)n2)cc(-c2cnc(C(C)(O)c3ccc(C(=O)O)cc3)s2)c1` (centres unmarked) [4-{1-hydroxy-1-[5-(3-methyl-5-{[4-(trifluoromethyl)pyrimidin-2-yl]amino}phenyl)-1,3-thiazol-2-yl]ethyl}benzoic acid]: the IC50 (as a rule, the midpoint of a concentration-inhibition curve) is under 0.5 nM.
`Cc1cc(Nc2nccc(C(F)(F)F)n2)cc(-c2cnc(C3(O)CC4(CC(C(=O)O)C4)C3)s2)c1` (centres unmarked) [6-hydroxy-6-[5-(3-methyl-5-{[4-(trifluoromethyl)pyrimidin-2-yl]amino}phenyl)-1,3-thiazol-2-yl]spiro[3.3]heptane-2-carboxylic]: the IC50 amounted to 2 nM.

The same assay, now with this note: hSYK Activity, table after Example 66.
`CC(=O)NC1(c2ncc(-c3cc(C)cc(Nc4nccc(C(F)(F)F)n4)c3)s2)COC1` [66-1]: the IC50 is under 100 nM.

Still in this assay, the particulars now being: hSYK Activity, table of Example 23-1.
Turning to `NC(=O)[C@H]1CC[C@H](c2ncc(-c3cccc(Nc4nccc(C(F)(F)F)n4)c3)s2)CC1` [23-1], the half-maximal inhibitory concentration (IC50) was under 100 nM.

The assay is the same for the next values; noted with them: hSYK Activity, table of Example 28-1.
On to `CC(C)(O)c1ncc(-c2cc(Nc3nccc(C(F)(F)F)n3)cc(C(F)F)c2)s1` [28-1], for which the IC50 was under 100 nM.

Staying with this assay, now noted: rhSYK Activity (IC50), recombinant human GST-SYK 5 pM, ATP 25 μM, biotinylated substrate peptide 250 nM, HTRF, 10-dose titration.
For the compound `Cc1cc(Nc2nccc(C(F)C3CC3)n2)cc(-c2cnc(C3(O)CCC(C(=O)O)C(C)(C)C3)s2)c1` (single isomer, unassigned) [Example 100A-21], the IC50 is under 100 nM.
`Cc1cc(Nc2nccc(C(C)(O)C3CC3)n2)cc(-c2cnc(C3(O)CCC(C(=O)O)C(C)(C)C3)s2)c1` (single isomer, unassigned) [Example 100A-25]: the IC50 was under 100 nM.
Take `Cc1cc(Nc2nccc(C(F)(F)F)n2)cc(-c2cnc(C3(O)CCNC(=O)CC3)s2)c1Br` (single isomer, unassigned) [Example 111-1]: the IC50 lay in the range of 100 to 1000 nM.
Consider `Cc1cc(Nc2nccc(C(F)(F)F)n2)cc(-c2cnc(C3(O)CCNC(=O)CC3)s2)c1Br` (single isomer, unassigned) [Example 111-2], for which the IC50 was under 100 nM.

The same assay, now with this note: rhSYK Activity, Table 8A.
Consider `Cc1cc(Nc2ncc(F)c(C)n2)cc(-c2cnc([C@]3(O)CC[C@@H](O)CC3)s2)c1` [8A-1], for which the IC50 was under 100 nM.
In the case of `Cc1cc(Nc2ncc(Cl)c(C)n2)cc(-c2cnc([C@]3(O)CC[C@@H](O)CC3)s2)c1` [8A-2], the concentration for half-maximal inhibition (IC50) is under 100 nM.
Same read-out and setting: the figure for `COc1nc(Nc2cc(C)cc(-c3cnc([C@]4(O)CC[C@@H](O)CC4)s3)c2)ncc1F` [8A-3] is under 100 nM.
With `Cc1cc(Nc2ncc(F)c(C3CC3)n2)cc(-c2cnc([C@]3(O)CC[C@@H](O)CC3)s2)c1` [8A-4], the IC50 was under 100 nM.
For the compound `COc1nc(Nc2cc(C)cc(-c3cnc(C4(O)CCC(O)CC4)s3)c2)ncc1Cl` (centres unmarked) [8A-5], the half-inhibitory concentration (IC50) was under 100 nM.
Same read-out and setting: the figure for `Cc1cc(Nc2nccc(C(F)(F)F)n2)cc(-c2cnc(C3(O)CCC(O)C(C)(C)C3)s2)c1` (centres unmarked) [8A-6] is under 100 nM; for `Cc1cc(Nc2ncc(F)c(C)n2)cc(-c2cnc(C3(O)CCC(=O)CC3)s2)c1` [8A-8] it is under 100 nM.

The assay is the same for the next values; noted with them: rhSYK Activity, Table 24.
`CC(O)c1ncc(-c2cc(Nc3nccc(C(F)(F)F)n3)cc(N3CCOCC3)c2)s1` (centres unmarked) [24-1]: the half-inhibitory concentration (IC50) was under 100 nM.
The same measure, in the same setting: in the case of `CC(=O)c1ncc(-c2cc(Nc3nccc(C(F)(F)F)n3)cc(N3CCOCC3)c2)s1` [24-3] it was under 100 nM; in that of `CS(=O)(=O)N1CCN(c2cc(Nc3nccc(C(F)(F)F)n3)cc(-c3cnc(C4(O)CCC4)s3)c2)CC1` [24-4], under 100 nM; in that of `CC(O)(c1ncc(-c2cc(Nc3nccc(C(F)(F)F)n3)cc(N3CCOCC3)c2)s1)C1CC1` (centres unmarked) [24-6], under 100 nM.
With `CC(O)(c1ncc(-c2cc(Nc3nccc(C(F)(F)F)n3)cc(N3CCOCC3)c2)s1)C(F)(F)F` (centres unmarked) [24-7], the IC50 was under 100 nM.

The same assay, now with this note: rhSYK Activity, Table 26.
As for `FC(F)(F)c1ccnc(Nc2cccc(-c3cnc(C4(F)CCC4)s3)c2)n1` [26-3], the IC50 lay in the range of 100 to 1000 nM.

The assay is the same for the next values; noted with them: rhSYK Activity, Table 46.
For the compound `Cc1cc(Nc2nccc(C(F)(F)F)n2)cc(-c2cnc(C3(O)CCNC(C(F)(F)F)C3)s2)c1` (centres unmarked) [46-1], the IC50 is under 100 nM.
For the compound `COC(=O)C1CC(O)(c2ncc(-c3cc(C)cc(Nc4nccc(C(F)(F)F)n4)c3)s2)CCN1` (centres unmarked) [46-2], the IC50 was under 100 nM.

Still in this assay, the particulars now being: rhSYK Activity, Table 54B.
With `Cc1cc(Nc2nccc(C(F)(F)F)n2)cc(-c2cnc(C3(O)CCN(C(N)=O)C3)s2)c1` (centres unmarked) [54B-2], the IC50 was under 100 nM.
For the compound `Cc1cc(Nc2nccc(C(F)(F)F)n2)cc(-c2cnc(C3(O)CCN(C(=O)OC(C)(C)C)C3)s2)c1` (centres unmarked) [54B-4], the IC50 is 100 to 1000 nM.
With `Cc1cc(Nc2nccc(C(F)(F)F)n2)cc(-c2cnc(C3(O)CCNC3)s2)c1` (centres unmarked) [54B-5], the IC50 is under 100 nM.
The same measure, in the same setting: the figure for `Cc1cc(Nc2nccc(C(F)(F)F)n2)cc(-c2cnc(C3(O)CCN(S(N)(=O)=O)C3)s2)c1` (centres unmarked) [54B-6] is under 100 nM; for `Cc1cc(Nc2nccc(C(F)(F)F)n2)cc(-c2cnc(C3(O)CCN(S(=O)(=O)NC(=O)OC(C)(C)C)C3)s2)c1` (centres unmarked) [54B-9] it is under 100 nM.
As to `COc1ccnc(Nc2cc(C)cc(-c3cnc(C4(O)CCN(C(N)=O)C4)s3)c2)n1` (centres unmarked) [54B-10], the IC50 was under 100 nM.
Take `COc1ccnc(Nc2cc(C)cc(-c3cnc(C4(O)CCNC4)s3)c2)n1` (centres unmarked) [54B-11]: the half-inhibitory concentration (IC50) is under 100 nM.
Same read-out and setting: in the case of `Cc1cc(Nc2nccc(C)n2)cc(-c2cnc(C3(O)CCNC3)s2)c1` (centres unmarked) [54B-12] it was under 100 nM; in that of `Cc1cc(Nc2nccc(C)n2)cc(-c2cnc(C3(O)CCN(C(N)=O)C3)s2)c1` (centres unmarked) [54B-13], under 100 nM; in that of `Cc1cc(Nc2nccc(C(F)(F)F)n2)cc(-c2cnc(C3(O)CCN(CCO)C3)s2)c1` (centres unmarked) [54B-19], under 100 nM.
Still for that read-out and setting: in the case of `Cc1cc(Nc2nccc(C(F)(F)F)n2)cc(-c2cnc(C3(O)CCN(CC(N)=O)C3)s2)c1` (centres unmarked) [54B-20] it was under 100 nM; in that of `Cc1cc(Nc2nccc(C(F)(F)F)n2)cc(-c2cnc(C3(O)CCN(C(=O)CO)C3)s2)c1` (centres unmarked) [54B-21], under 100 nM.
As for `Cc1cc(Nc2nccc(C(F)(F)F)n2)cc(-c2cnc(C3(O)CCN(CC(=O)O)C3)s2)c1` (centres unmarked) [54B-22], the IC50 was under 100 nM.
As for `Cc1cc(Nc2nccc(C(F)(F)F)n2)cc(-c2cnc(C3(O)CCN(C(=O)C(N)=O)C3)s2)c1` (centres unmarked) [54B-23], the IC50 was under 100 nM.
Take `COC(=O)CN1CCC(O)(c2ncc(-c3cc(C)cc(Nc4nccc(C(F)(F)F)n4)c3)s2)C1` (centres unmarked) [54B-24]: the concentration for half-maximal inhibition (IC50) was under 100 nM.
Same read-out and setting: in the case of `Cc1cc(Nc2nccc(C(F)(F)F)n2)cc(-c2cnc(C3(O)CCN(C(=O)C(=O)O)C3)s2)c1` (centres unmarked) [54B-25] it was under 100 nM; in that of `Cc1cc(Nc2nccc(C(F)(F)F)n2)cc(-c2cnc(C3(O)CCN(C(=O)CC(N)=O)C3)s2)c1` (centres unmarked) [54B-26], under 100 nM.
As for `COC(=O)C(=O)N1CCC(O)(c2ncc(-c3cc(C)cc(Nc4nccc(C(F)(F)F)n4)c3)s2)C1` (centres unmarked) [54B-27], the IC50 is under 100 nM.
Still for that read-out and setting: the figure for `Cc1cc(Nc2nccc(C(F)(F)F)n2)cc(-c2cnc(C3(O)CCN(C(=O)C(O)CO)C3)s2)c1` (centres unmarked) [54B-28] is under 100 nM.
Same read-out and setting: in the case of `Cc1cc(Nc2nccc(C(F)(F)F)n2)cc(-c2cnc(C3(O)CCN(C(=O)c4ccno4)C3)s2)c1` (centres unmarked) [54B-29] it was under 100 nM; in that of `Cc1cc(Nc2nccc(C(F)(F)F)n2)cc(-c2cnc(C3(O)CCN(C(=O)C4(O)CCC4)C3)s2)c1` (centres unmarked) [54B-30], under 100 nM; in that of `Cc1cc(Nc2nccc(C(F)(F)F)n2)cc(-c2cnc(C3(O)CCN(C4CCC(C(=O)O)C4)C3)s2)c1` (centres unmarked) [54B-32], under 100 nM.
With `COC(=O)C1CCC(N2CCC(O)(c3ncc(-c4cc(C)cc(Nc5nccc(C(F)(F)F)n5)c4)s3)C2)C1` (centres unmarked) [54B-34], the IC50 is under 100 nM.
Regarding `COC(=O)c1cccc(N2CCC(O)(c3ncc(-c4cc(C)cc(Nc5nccc(C(F)(F)F)n5)c4)s3)C2)c1` (centres unmarked) [54B-35], the concentration for half-maximal inhibition (IC50) was 100 to 1000 nM.
Same read-out and setting: in the case of `Cc1cc(Nc2nccc(C(F)(F)F)n2)cc(-c2cnc(C3(O)CC(C(=O)O)N(C(N)=O)C3)s2)c1` (centres unmarked) [54B-36] it was under 100 nM; in that of `COC(=O)C1CC(O)(c2ncc(-c3cc(C)cc(Nc4nccc(C(F)(F)F)n4)c3)s2)CN1C(N)=O` (centres unmarked) [54B-37], under 100 nM.

Still in this assay, the particulars now being: rhSYK Activity, Table 54C.
Regarding `OC1(c2ncc(-c3cccc(Nc4nccc(C(F)(F)F)n4)c3)s2)CCNC1` (centres unmarked) [54C-1], the IC50 is under 100 nM.

Staying with this assay, now noted: rhSYK Activity, Table 61A.
Take `Cc1cc(Nc2nccc(C(F)(F)F)n2)cc(-c2cnc(C(NS(C)(=O)=O)(C3CC3)C3CC3)s2)c1` [61A-1]: the IC50 is under 100 nM.
On to `Cc1cc(Nc2nccc(C(F)(F)F)n2)cc(-c2cnc(C(N[S+]([O-])C(C)(C)C)(C3CC3)C3CC3)s2)c1` (centres unmarked) [61A-2], for which the IC50 lay within 100 to 1000 nM.
The same measure, in the same setting: the figure for `Cc1cc(Nc2nccc(C(F)(F)F)n2)cc(-c2cnc(C(C)(C)N)s2)c1` [61A-3] is under 100 nM; for `Cc1cc(Nc2nccc(C(F)(F)F)n2)cc(-c2cnc(C(C)(C)NS(C)(=O)=O)s2)c1` [61A-4] it is under 100 nM.

Staying with this assay, now noted: rhSYK Activity, Table 65.
As to `Cc1cc(Nc2nccc(C(F)(F)F)n2)cc(-c2cnc(C3(NC(=O)NC(N)=O)COC3)s2)c1` [65-1], the half-inhibitory concentration (IC50) is under 100 nM.
In the case of `COc1ccnc(Nc2cc(C)cc(-c3cnc(C4(NC(=O)NC(N)=O)CCC4)s3)c2)n1` [65-2], the IC50 was under 100 nM.
On to `Cc1cc(Nc2ncccn2)cc(-c2cnc(C3(NC(=O)NC(N)=O)CCC3)s2)c1` [65-3], for which the half-inhibitory concentration (IC50) is under 100 nM.
The same measure, in the same setting: the figure for `Cc1cc(Nc2nccc(C3CC3)n2)cc(-c2cnc(C3(NC(=O)NC(N)=O)CCC3)s2)c1` [65-4] is under 100 nM; for `Cc1cc(Nc2nccc(C(F)(F)F)n2)cc(-c2cnc(C3(NC(=O)NC(N)=O)CCNC(=O)CC3)s2)c1` (centres unmarked) [65-6] it is under 100 nM.
Turning to `Cc1cc(Nc2ncc(Cl)c(C(F)(F)F)n2)cc(-c2cnc(C3(NC(=O)NC(N)=O)CCNC(=O)CC3)s2)c1` (centres unmarked) [65-7], the 50% inhibitory concentration (IC50) is under 100 nM.
For the compound `COc1nc(Nc2cc(C)cc(-c3cnc(C4(NC(=O)NC(N)=O)CCC4)s3)c2)ncc1Cl` [65-8], the IC50 is under 100 nM.

Still in this assay, the particulars now being: rhSYK Activity, Table 74A.
Regarding `Cc1cc(Nc2nccc(C(F)(F)F)n2)cc(-c2cnc(C(C)(C)S(N)(=O)=O)s2)c1` [74A-1], the IC50 is under 100 nM.
For `CC(C)(c1ncc(-c2cccc(Nc3nccc(C(F)(F)F)n3)c2)s1)S(C)(=O)=O` [74A-2], the half-maximal inhibitory concentration (IC50) was under 100 nM.

The same assay, now with this note: rhSYK Activity, table after Example 69.
For `Cc1cc(Nc2nccc(C(=O)N3CCOCC3)n2)cc(-c2cnc(C(C)(O)C(F)(F)F)s2)c1` (centres unmarked) [69-1], the IC50 fell in the range of 100 to 1000 nM.
